In ChEMBL document CHEMBL1132782:

Each compound was assayed against Prothrombin (Homo sapiens) (UniProt P00734) (assay: Inhibitory activity against human thrombin).
With `COc1cc(Cn2c(-c3ccc(OCCN4CCCC4)cc3)nc3ccccc32)ccc1CN1CCCC1` the K ass was 1.19e+07 l M-1. `COc1cc(Cn2c(-c3ccc(OCCn4cccn4)cc3)nc3ccccc32)ccc1CN1CCCC1` was tested, and the K ass was 1.46e+06 l M-1. With `COc1cc(Cn2c(-c3ccc(OCCN4CCCC4)cc3)cc3cnccc32)ccc1C(=O)N1CCCC1` the K ass was 8.37e+07 l M-1. `COc1cc(Cn2c(-c3ccc(OCCCCO)cc3)cc3ccccc32)ccc1CN1CCCC1` was tested, and the K ass was 3.37e+07 l M-1. For `COc1cc(Cc2c(-c3ccc(OCCN4CCCC4)cc3)sc3ccccc23)ccc1CN1CCCC1`, the K ass was 1.26e+08 l M-1. `COc1cc(Cn2c(-c3ccc(OCCN4CCCC4=O)cc3)nc3ccccc32)ccc1CN1CCCC1` was tested, and the K ass was 1.5e+07 l M-1. With `COc1cc(Cn2c(-c3ccc(OCCN4CCCC4)cc3)nc3cc(O)ccc32)ccc1CN1CCCC1` the K ass was 9.72e+06 l M-1. In the case of `COc1cc(Cn2c(-c3ccc(OCCN4CCCC4)cc3)nc3cc(O)ccc32)ccc1Cn1ccnc1`, the K ass is reported as 9.6e+06 l M-1. In the case of `COc1cc(Cn2c(-c3ccc(OCCN4CCCC4)cc3)nc3cc(CN)ccc32)ccc1CN1CCCC1`, the K ass is reported as 4.49e+06 l M-1. In the case of `COc1cc(Cn2c(-c3ccc(OCCN4CCCC4)cc3)nc3cc(O)ccc32)ccc1Cn1ccnn1`, the K ass is reported as 1.02e+07 l M-1. `COc1cc(Cc2c(-c3ccc(OCCCC(=O)O)cc3)sc3ccccc23)ccc1CN1CCCC1` was tested, and the K ass was 3.91e+06 l M-1. For `COc1cc(Cn2c(-c3ccc(OCCN4CCCC4)cc3)cc3ccccc32)ccc1CN1CCCC1`, the K ass was 1.97e+08 l M-1. `COc1cc(Cn2c(-c3ccc(OCCN4CCCC4)cc3)cc3cnccc32)ccc1CN1CCCC1` was tested, and the K ass was 7.39e+07 l M-1. For `COc1cc(Cn2c(-c3ccc(OCCN4CCCC4)cc3)nc3cc(O)ccc32)ccc1Cn1cccn1`, the K ass was 1.2e+07 l M-1. With `COc1cc(Cn2c(-c3ccc(OCCCC(=O)O)cc3)cc3ccccc32)ccc1CN1CCCC1` the K ass was 6.41e+06 l M-1. `COc1cc(Cc2c(-c3ccc(OCCCCO)cc3)sc3ccccc23)ccc1CN1CCCC1` was tested, and the K ass was 1.49e+07 l M-1. For `COc1cc(Cn2c(-c3ccc(OCCN4CCCC4)cc3)cc3ccncc32)ccc1C(=O)N1CCCC1`, the K ass was 5.97e+07 l M-1. For `O=C(c1ccc(OCCN2CCCC2)cc1)c1c(-c2ccc(OCCN3CCCC3)cc2)sc2ccccc12`, the K ass was 410000 l M-1. In the case of `COC(=O)CCCOc1ccc(-c2cc3ccccc3n2Cc2ccc(CN3CCCC3)c(OC)c2)cc1`, the K ass is reported as 2.47e+07 l M-1. With `c1ccc2c(c1)nc(-c1ccc(OCCN3CCCC3)cc1)n2Cc1ccc(OCCN2CCCC2)cc1` the K ass was 332000 l M-1. `COC(=O)CCCOc1ccc(-c2sc3ccccc3c2Cc2ccc(CN3CCCC3)c(OC)c2)cc1` was tested, and the K ass was 7.68e+06 l M-1. With `c1ccc2c(Cc3ccc(OCCN4CCCC4)cc3)c(-c3ccc(OCCN4CCCC4)cc3)oc2c1` the K ass was 974000 l M-1. In the case of `COc1cc(Cn2c(-c3ccc(OCCN4CCCC4)cc3)nc3cc(CO)ccc32)ccc1CN1CCCC1`, the K ass is reported as 1.93e+06 l M-1. For `c1ccc2c(Cc3ccc(OCCN4CCCC4)cc3)c(-c3ccc(OCCN4CCCC4)cc3)[nH]c2c1`, the K ass was 42000 l M-1. `COc1cc(Cc2c(-c3ccc(OCCN4CCCC4)cc3)sc3cc(O)ccc23)ccc1CN1CCCC1` was tested, and the K ass was 8.15e+08 l M-1. For `c1ccc2c(c1)cc(-c1ccc(OCCN3CCCC3)cc1)n2Cc1ccc(OCCN2CCCC2)cc1`, the K ass was 6.27e+06 l M-1. For `COc1cc(Cn2c(-c3ccc(OCCN4CCCC4)cc3)nc3cc(O)ccc32)ccc1NCc1ccccc1`, the K ass was 1.65e+07 l M-1.
